Entries after “also recorded” stand apart in the source; their conditions may differ.
Experiments:
[1] = set-up: method as in PMID 36174276; settings: cited from earlier work
BC2L-C-Nt = biological target: BC2L-C-Nt; set-up: method as in PMID 36174276; settings: SPR, BC2L-C-Nt immobilized on CM5 chip; said not to correlate with ITC; read-out: apparent Kd; cited from earlier work
Water solubility = type: physicochemical; settings: fully soluble at least up to
[2] = biological target: the molecule itself; test: crystal structure; hexagonal crystal form (P6_3), one protomer in the asymmetric unit, trimer by the 3-fold crystallographic symmetry; cocrystals with H-type 1 oligosaccharide soaked with 3 mM compound 3 in 2.47 M sodium malonate pH 7.0 for 48 h at 19 °C

Molecule: C[C@@H]1O[C@H](NC(=O)c2ccc(-c3cccc(N)c3)o2)[C@@H](O)[C@H](O)[C@@H]1O [compound 2]
- water solubility (in words) [1]: very low water solubility; also recorded: water-insoluble
- Kd (BC2L-C-Nt): 2.4 mM

Molecule: C[C@@H]1O[C@H](NC(=O)c2ccc(-c3cccc(CN)c3)o2)[C@@H](O)[C@H](O)[C@@H]1O [compound 3]
- solubility (Water solubility): ≥ 2000 µM

Molecule: NCc1cccc(-c2ccc(C(=O)NC3OC(CO)C(O)C(O)C3O)o2)c1 (stereo not drawn) [compound 4]
- solubility (Water solubility): ≥ 2000 µM

Molecule: C[C@@H]1O[C@H](NC(=O)c2ccco2)[C@@H](O)[C@H](O)[C@@H]1O [compound 17, Furan-2-carboxamido-β-L-fucopyranose]
- solubility (Water solubility): ≥ 2000 µM

B1: N-terminal domain of the lectin BC2L-C from Burkholderia cenocepacia (domain or fragment)
chain: MPLLSASIVSAPVVTSETYVDIPGLYLDVAKAGIRDGKLQVILNVPTPYATGNNFPGIYFAIATNQGVVADGCFTYSSKVPESTGRMPFTLVATIDVGSGVTFVKGQWKSVRGSAMHIDSYASLSAIWGTAA
notes: also called BC2L-C-Nt; BC2L-C N-terminal domain; not shown: expression tag, N-terminal, cleaved
- stoichiometry N [2]: 3

— paper PMC9919437 (Molecules, 2023)
